Test results published in US20200360391A1, “Medicinal Composition for Treating Intractable Heart Disease” (Osaka University, priority 2016, published 2020).
“Also recorded” adds a separate entry of the source. Read-outs that look alike come from different tables or passages of the source. Marks after values point to notes of the source that are not given here.

Experiments:
[1] = test system: spontaneous dilated cardiomyopathy (J2N-k) hamster model; test: Spontaneous dilated cardiomyopathy (J2N-k) hamster model, 8-week administration from 20 weeks of age (Tests 1-3): echocardiography, body weight
Experimental: The doses of pharmaceutical products were determined based on the no-observed-adverse-effect levels in a long-term toxicity study using rats. δ-Glycan-deficient spontaneous dilated cardiomyopathy (J2N-k) male hamsters (Japan SLC, Inc.) were delivered at 18 weeks of age. After a 2-week quarantine/acclimation, echocardiography was performed.
Each of the pharmaceutical products (A to K and O) was individually administered twice daily (at an interval of 8 hours or more) by oral gavage, and echocardiography was performed after 4 and 8 weeks (before dissection). Differences from the value before the start of administration (at the time of grouping) (amount of change: Δ) in each group were examined, and the cardiac function (EF value, FS %, etc.) was compared with that in the vehicle group (Group 1). Moreover, the heart was removed […] after the start of administration, and electron microscopy and RNA protein measurement were performed. Specimens for immunopathology were also collected and evaluated.
Each pharmaceutical product was individually suspended in 0.5% CMC-Na (sodium carboxymethylcellulose; Wako Pure Chemical Industries, Ltd.) before use, and administered. […] To Group 1 (control), 0.5% CNC-Na (vehicle) was administered.
Each pharmaceutical product was individually suspended in 0.5% CMC-Na (sodium carboxymethylcellulose; Wako Pure Chemical Industries, Ltd.) before use, and administered. Test substance G was suspended in distilled water before use, and administered.
Reason the doses were set (assuming that the adult body weight was 60 kg, the same amounts as the maximum clinical doses were set) • 1) The clinical dose of C (ozagrel; OZ) was 200 mg twice per day. The dose was thus set to 3.3 mg/kg twice per day. • 2) The clinical dose of D (cilostazol; CS) was 100 mg twice per day. The dose was thus set to 1.7 mg/kg twice per day. • 3) The clinical dose of E (pirfenidone; PF) was 600 mg three times per day, i.e., 1800 mg/day in total. The dose was thus set to 15 mg/kg twice per day. • 4) The clinical dose of G (nintedanib sulfonate; OB) was 150 mg twice per day. The dose was thus set to 2.5 mg/kg twice per day. • 5) The clinical dose of P (carvedilol; CV) was 10 mg twice per day. The dose was thus set to 0.17 mg/kg twice per day. • 6) Preparation 2 (PLGA⋅MS preparation of camostat; B⋅MS): the clinical dose of active substance camostat was 200 mg three times per day, i.e., 600 mg/day in total; thus, intermittent subcutaneous administration at a daily dose of 10 mg/kg once every 4 weeks, twice in total was set. The dose was 1/28 of the total oral dose amount.
The dose volume in oral administration was 5 mL/kg (the amount of liquid to be administered to each animal was calculated based on the most recent body weight), and administered by oral gavage using a polypropylene disposable syringe and a rat stomach tube.
The administration period of each pharmaceutical product was 8 weeks.

[2] = test system: spontaneous dilated cardiomyopathy J2N-k baby hamsters; test: J2N-k baby hamsters (Test 4): administration alone or in combination, echocardiography, body weight; type: in vivo, hamster; settings: for % FS / EF (%) / value of change in E.F. compared with E.F. at 0 W / value of change in F.S. compared with F.S. at 0 W: Test 4, dose O 0.17, C 3.3, E 15, orally twice daily, mean ± S.D.
Experimental: δ-Glycan-deficient spontaneous dilated cardiomyopathy (J2N-k) male hamsters (Japan SLC, Inc.) were delivered at 4 weeks of age. After a 1-week quarantine/acclimation, echocardiography was performed. The hamsters were grouped by stratified random assignment based on the EF values and the body weights so that each administration group was equalized.
Each test substance was individually administered twice daily (at an interval of 8 hours or more) by oral gavage, and echocardiography was performed 4 and 8 weeks after the start of administration (before dissection). Differences from the value before the start of administration (at the time of grouping) (amount of change: A) in each group were examined, and the cardiac function (EF value, FS %, etc.) was compared with that in the vehicle group (Group 1).
The doses were set according to the dose-setting basis in Test 3, and similarly orally administered twice daily. Effects of administration of combinations of two or three of carvedilol, which is a β-blocker widely used clinically, and ozagrel and/or pirfenidone were examined.

[3] = cited from earlier work
rats = settings: rats, cited from earlier work
[4] = Test 4, p.o. b.i.d., clinical dose
[5] = Test 2, p.o. b.i.d., NOAEL-based dose
[6] = Test 2, p.o. b.i.d., NOAEL-based dose, listed as lovastatin

Compound: COc1ccccc1OCCNCC(O)COc1cccc2[nH]c3ccccc3c12 (stereo not drawn) [Compound O, Carvedilol]
- Cardiac function (EF, FS %) actual measured value and/or amount of change compared with control, 8 W value ([1]; Test 3, clinical dose): significant cardiac function improvement effect
- Cardiac function (EF, FS %) actual measured value or change rate compared with control, 4 W value ([1]; Test 3, clinical dose): significant cardiac function improvement effect
- Cardiac function improvement effect ([1]; Test 3, clinical dose, summary): cardiac function improvement effect was observed
- Minimal effective dose (screening 2) ([1]; mg/kg twice per day, oral preparation): 0.17 mg/kg
- Body weight 0 W ([2]; Test 4, at grouping): 71.5 g
- Action on decrease in left ventricular systolic function ([2]; Test 4, clinical doses p.o. b.i.d., 8 weeks): significant suppression action on a decrease in left ventricular systolic function; also recorded: action of significantly suppressing a decrease in left ventricular systolic function
- Body weight 2 W [2, 4]: 84.2 g
- Body weight 4 W [2, 4]: 92.6 g
- Body weight 5 W [2, 4]: 97.8 g
- Body weight 6 W [2, 4]: 101.3 g
- Body weight 7 W [2, 4]: 104.0 g
- Body weight 8 W [2, 4]: 106.1 g
- % FS ([2]; 0 W (start of administration)): 38.8 ± 3.0%
- EF (%) ([2]; 0 W (start of administration)): 76.9 ± 3.4%
- % FS ([2]; 4 W): 34.4 ± 1.8%
- EF (%) ([2]; 4 W): 71.7 ± 2.3%
- value of change in E.F. compared with E.F. at 0 W ([2]; 4 W): <−5.2 ± 2.3> %
- value of change in F.S. compared with F.S. at 0 W ([2]; 4 W): <−4.4 ± 2.1> %
- % FS ([2]; 8 W): 30.1 ± 1.3%
- EF (%) ([2]; 8 W): 65.8 ± 1.9%
- value of change in E.F. compared with E.F. at 0 W ([2]; 8 W): <−11.1 ± 3.8> %
- value of change in F.S. compared with F.S. at 0 W ([2]; 8 W): <−8.7 ± 3.2> %

Compound: Lovastatin calcium [Compound J]
- Body weight lower than that in the control group ([1]; Test 2, 8 weeks after start of administration, 5 mg/kg b.i.d.): about 10%
- % FS 0 W ([1]; Test 2, at grouping): 17 ± 2%
- Body weight 0 W ([1]; Test 2, at grouping): 122.9 g
- EF 0 W ([1]; Test 2, at grouping): 43 ± 3%
- LVIDd 0 W ([1]; Test 2, at grouping): 6.7 mm
- LVIDs 0 W ([1]; Test 2, at grouping): 5.6 mm
- LVIDd 4 W ([1]; Test 2, p.o. b.i.d.): 7.1 mm
- LVIDd 8 W ([1]; Test 2, p.o. b.i.d.): 7.4 mm
- LVIDs 4 W ([1]; Test 2, p.o. b.i.d.): 6.0 mm
- LVIDs 8 W ([1]; Test 2, p.o. b.i.d.): 6.3 ± mm
- % FS 4 W [1, 5]: 15 ± 1%
- % FS 8 W [1, 5]: 14 ± 1%
- % FS value of change at 4 W compared with 0 W [1, 5]: <−2 ± 1> %
- % FS value of change at 8 W compared with 0 W [1, 5]: <−3 ± 1> %
- Body weight 3 W [1, 5]: 120.8 g
- Body weight 5 W [1, 5]: 120.3 * g
- Body weight 7 W [1, 5]: 118.7 ** g
- Body weight 8 W [1, 5]: 118.0 * g
- EF 4 W [1, 5]: 39 ± 2%
- EF 8 W [1, 5]: 37 ± 2%
- EF value of change at 4 W compared with 0 W [1, 5]: <−4 ± 1> %
- EF value of change at 8 W compared with 0 W [1, 5]: <−6 ± 3> %
- % FS 4 W [1, 6]: not significantly higher
- % FS value of change at 4 W compared with 0 W [1, 6]: significantly higher
- LVIDs 8 W ([1]; Test 2, p.o. b.i.d., listed as lovastatin): significantly lower
- CK (CPK) elevation cases ([3]; human, in vivo): 1.6%
- Elevated AST (GOT) and/or ALT (GPT) / liver enzyme cases ([3]; human, in vivo): 1.7%
- Muscle pain cases ([3]; human, in vivo): 3.2%
- Cases with side effects (including laboratory test value abnormality) ([3]; share of cases evaluated for safety): 18.8%
- No-observed-adverse-effect level (rats; 1 month): 15 mg/kg
- No-observed-adverse-effect level (rats; 6 months): 2 mg/kg
- No-observed-adverse-effect level (rats; 13 weeks / 3 months): 10 mg/kg
